Results published in patent publication US10562912B2 (C&C Research Laboratories, priority 2013, dated 2020).

Experiments:
Assay type in all cases: cell-based
STAT3 = target: T1, STAT3 (Homo sapiens, UniProt P40763); test: STAT3 reporter gene assay (luciferase), LNCaP stable cell line (pSTAT3-TA-luc), IL-6 stimulation
T1 construct: plasmid pSTAT3-TA-luc), which contains a stably operating STAT3 promoter; endogenous in cells
How it was run: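 Cytotoxicity was run on a duplicate plate with CellTiter-Glo, while the other plate gave luciferase read-outs from lysed LNCaP pSTAT3-TA-luc reporter cells. Cells were treated with graded compound concentrations plus IL-6 (10 ng/mL final) for 24–48 h in 3% DCC-FBS medium. Unstimulated and stimulated wells served as negative and positive controls.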

AGS = test: Cell growth inhibition assay, stomach cancer cell line AGS; conditions: Homo sapiens; AGS stomach cancer cell line, 3,000 cells/well
Method: The inhibitory effects of the compounds of the present invention against the growth of cancer cells were evaluated as shown below. The cancer cell lines including stomach cancer cell line (AGS), breast cancer cell lines (MDA-MB-231, MDA-MB-468, and BT-549), prostate cancer cell lines (LNCaP and DU-145), colon cancer cell line (HCT116), ovarian cancer cell line (SW626), liver cancer cell line (Hep3B), kidney cancer cell line (ACHN), lung cancer cell line (NCI-H23) and blood cancer cell lines (HEL92.1.7 and U266) were cultured under the protocol provided by each supplier. A medium supplemented with 10 ng/mL of IL-6 was used for LNCaP, a prostate cancer cell line, when treated with a drug. Each type of cells to be used in experiments were sub-cultured in a 96-well plate by counting the exact number of cells using Tali™ Image-based Cytometer (Life Technologies). In a 96-well plate, AGS, HCT116, and DU-145 were employed with 3,000 cells/well; NCI-H23, SW626, Hep3B, ACHN, BT-549, MDA-MB-231, HEL92.1.7, and U266 were employed with 5,000 cells/well; and LNCaP and MDA-MB-468 were employed with 10,000 cells/well. The cells were treated with the compounds listed in Examples which were diluted in various concentrations. Upon completion of the compounds treatment, AGS, HCT116, SW626, DU145, NCI-H23, Hep3B, ACHN, BT-549, LNCaP, HEL92.1.7, and U266 cells were cultured at 37° C. under 5% CO2 for from 72 to 96 hours, and MDA-MB-231 and MDA-MB-468 cells were cultured at 37° C. in air for from 72 to 96 hours. Subsequently, the cells were observed under microscope and drug precipitation and particular findings were investigated and recorded. And then, the 96-well plate was placed at room temperature for 30 minutes, added with 20 μL/well of CellTiter-Glo solution (Cat No. G7573, Promega) and shaken for 10 minutes, followed by being subjected to the measurement using PHERAstar™ microplate reader (BMG LABTECH) according to the supplier's general luminometer protocol. Wells where only culture liquid added without cell plating were used as a negative control, whereas wells where culture liquid containing 0.1% DMSO instead of the compounds listed in Examples were used as a positive control.

LNCaP = test: Cell growth inhibition assay, prostate cancer cell line LNCaP (medium with 10 ng/mL IL-6); conditions: Homo sapiens, medium supplemented with 10 ng/mL of IL-6, 10,000 cells/well

T1 sequence (P40763 whole entry): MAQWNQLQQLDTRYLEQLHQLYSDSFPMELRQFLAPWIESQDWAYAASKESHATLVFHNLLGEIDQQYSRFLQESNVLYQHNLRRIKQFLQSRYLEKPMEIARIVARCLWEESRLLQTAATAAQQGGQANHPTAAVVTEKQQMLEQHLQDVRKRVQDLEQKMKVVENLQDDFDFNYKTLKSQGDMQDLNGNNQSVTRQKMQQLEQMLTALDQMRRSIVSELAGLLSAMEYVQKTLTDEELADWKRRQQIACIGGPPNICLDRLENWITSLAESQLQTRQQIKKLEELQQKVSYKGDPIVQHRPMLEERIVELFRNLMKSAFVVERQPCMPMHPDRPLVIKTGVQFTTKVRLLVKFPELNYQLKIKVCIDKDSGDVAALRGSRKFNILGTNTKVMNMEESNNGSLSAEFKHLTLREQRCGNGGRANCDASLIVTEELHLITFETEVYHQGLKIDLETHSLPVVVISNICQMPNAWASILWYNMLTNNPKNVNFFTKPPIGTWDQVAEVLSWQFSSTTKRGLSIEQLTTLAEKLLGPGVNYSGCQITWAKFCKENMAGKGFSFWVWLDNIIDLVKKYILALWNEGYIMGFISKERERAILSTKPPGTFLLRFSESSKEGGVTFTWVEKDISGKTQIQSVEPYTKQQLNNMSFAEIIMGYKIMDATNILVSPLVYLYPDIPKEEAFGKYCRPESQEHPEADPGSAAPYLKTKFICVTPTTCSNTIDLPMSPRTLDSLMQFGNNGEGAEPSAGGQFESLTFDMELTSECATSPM

| IC50 (STAT3) [µM] | IC50 (AGS) [µM] | IC50 (LNCaP) [µM] | Compound |
| --- | --- | --- | --- |
| 5.3 | > 50 | 9.8 | CS(=O)(=O)Nc1ccc2c(c1)NC(C(=O)Nc1cccc(-c3ccc(F)cc3C(F)(F)F)c1)C2 (stereo not drawn) [Example 262, N-(4′-fluoro-2′-(trifluoromethyl)-[1,1′-biphenyl]-3-yl)-6-(methylsulfonamido)indoline-2-carboxamide] |
| > 10 | > 50 | 8 | CC(C)(C)OC(=O)n1c(C(=O)Nc2cccc(-c3ccccc3C(F)(F)F)c2)cc2ccc([N+](=O)[O-])cc21 [Example 263, tert-butyl 6-nitro-2-((2′-(trifluoromethyl)-[1,1′-biphenyl]-3-yl)carbamoyl)-1H-indole-1-carboxylate] |
| 1.9 | 13 | 6.2 | O=C(Nc1cccc(-c2ccccc2C(F)(F)F)c1)c1cc2ccc(NS(=O)(=O)CC(F)(F)F)cc2[nH]1 [Example 264, 6-(2,2,2-trifluoroethylsulfonamido)-N-(2′-(trifluoromethyl)-[1,1′-biphenyl]-3-yl)-1H-indole-2-carboxamide] |
| 4.2 | 11.4 | > 10 | NS(=O)(=O)Nc1ccc2cc(C(=O)Nc3cccc(-c4ccccc4C(F)(F)F)c3)[nH]c2c1 [Example 265, 6-(sulfamoylamino)-N-(2′-(trifluoromethyl)-[1,1′-biphenyl]-3-yl)-1H-indole-2-carboxamide] |
| 6.8 | 8.5 | > 10 | CS(=O)(=O)Nc1ccc2c(C(=O)Nc3cccc(-c4ccccc4C(F)(F)F)c3)c[nH]c2c1 [Example 266, 6-(methylsulfonamido)-N-(2′-(trifluoromethyl)-[1,1′-biphenyl]-3-yl)-1H-indole-3-carboxamide] |
| 2 | 9.2 | 3.2 | CN(C)S(=O)(=O)Nc1ccc2cc(C(=O)Nc3cccc(-c4ccccc4C(F)(F)F)c3)[nH]c2c1 [Example 267, 6-((N,N-dimethylsulfamoyl)amino)-N-(2′-(trifluoromethyl)-[1,1′-biphenyl]-3-yl)-1H-indole-2-carboxamide] |
| > 10 | 27.1 | > 10 | O=C(Nc1cccc(-c2ccccc2C(F)(F)F)c1)c1cc2ccc(NS(=O)(=O)C(F)(F)F)cc2[nH]1 [Example 268, N-(2′-(trifluoromethyl)-[1,1′-biphenyl]-3-yl)-6-(trifluoromethylsulfonamido)-1H-indole-2-carboxamide] |
| 5.9 | 26.1 | 8.6 | Nc1ccc2cc(C(=O)Nc3cccc(-c4ccc(F)cc4F)c3)[nH]c2c1 [Example 271, 6-amino-N-(2′,4′-difluoro-[1,1′-biphenyl]-3-yl)-1H-indole-2-carboxamide] |
| 0.5 | 18.8 | 2.6 | CS(=O)(=O)Nc1ccc2[nH]c(C(=O)Nc3cccc(-c4ccc(F)cc4F)c3)cc2c1 [Example 272, N-(2′,4′-difluoro-[1,1′-biphenyl]-3-yl)-5-(methylsulfonamido)-1H-indole-2-carboxamide] |
| 2.2 | 10 | 4.1 | O=C(Nc1cccc(-c2ccc(F)cc2F)c1)c1cc2ccc(NS(=O)(=O)CC(F)(F)F)cc2[nH]1 [Example 273, N-(2′,4′-difluoro-[1,1′-biphenyl]-3-yl)-6-(2,2,2-trifluoroethylsulfonamido)-1H-indole-2-carboxamide] |
| > 10 | 17.9 | > 10 | NS(=O)(=O)Nc1ccc2cc(C(=O)Nc3cccc(-c4ccc(F)cc4F)c3)[nH]c2c1 [Example 274, N-(2′,4′-difluoro-[1,1′-biphenyl]-3-yl)-6-(sulfamoylamino)-1H-indole-2-carboxamide] |
| 3.1 | 11.9 | 1.3 | CN(C)S(=O)(=O)Nc1ccc2cc(C(=O)Nc3cccc(-c4ccc(F)cc4F)c3)[nH]c2c1 [Example 276, N-(2′,4′-difluoro-[1,1′-biphenyl]-3-yl)-6-((N,N-dimethylsulfamoyl)amino)-1H-indole-2-carboxamide] |
| 0.38 | 2.1 | 1.8 | CS(=O)(=O)Nc1ccc2cc(C(=O)Nc3cccc(-c4ccc(F)cc4C(F)(F)F)c3)[nH]c2c1 [Example 277, N-(4′-fluoro-2′-(trifluoromethyl)-[1,1′-biphenyl]-3-yl)-6-(methylsulfonamido)-1H-indole-2-carboxamide] |
| 4.5 | 20 | 5.9 | O=C(Nc1cc(-c2ccc(F)cc2F)ccn1)c1cc2ccc(NS(=O)(=O)C3CC3)cc2[nH]1 [Example 278, 6-(cyclopropanesulfonamido)-N-(4-(2,4-difluorophenyl)pyridin-2-yl)-1H-indole-2-carboxamide] |
| 6.2 | 40.7 | > 10 | CS(=O)(=O)Nc1ccc2cc(C(=O)Nc3cc(-c4ccc(F)cc4F)ccn3)[nH]c2c1 [Example 279, N-(4-(2,4-difluorophenyl)pyridin-2-yl)-6-(methylsulfonamido)-1H-indole-2-carboxamide] |
| 1.7 | 2.7 | 2.7 | CN(C(=O)c1cc2ccc(NS(C)(=O)=O)cc2[nH]1)c1cccc(-c2ccc(F)cc2F)c1 [Example 280, N-(2′,4′-difluoro-[1,1′-biphenyl]-3-yl)-N-methyl-6-(methylsulfonamido)-1H-indole-2-carboxamide] |
| 7.1 | 16.6 | > 10 | COc1ccc(C(F)(F)F)c(-c2cccc(NC(=O)c3cc4ccc(NS(C)(=O)=O)cc4[nH]3)c2)c1 [Example 281, N-(5′-methoxy-2′-(trifluoromethyl)-[1,1′-biphenyl]-3-yl)-6-(methylsulfonamido)-1H-indole-2-carboxamide] |
| > 10 | 23.8 | > 10 | COc1ccc(C(F)(F)F)c(-c2cccc(NC(=O)c3cc4ccc([N+](=O)[O-])cc4[nH]3)c2)c1 [Example 282, N-(5′-methoxy-2′-(trifluoromethyl)-[1,1′-biphenyl]-3-yl)-6-nitro-1H-indole-2-carboxamide] |
| 7.4 | 18.2 | > 10 | CS(=O)(=O)Nc1ccc2cc(C(=O)Nc3cccc(-c4ccc(S(N)(=O)=O)cc4C(F)(F)F)c3)[nH]c2c1 [Example 283, 6-(methylsulfonamido)-N-(4′-sulfamoyl-2′-(trifluoromethyl)-[1,1′-biphenyl]-3-yl)-1H-indole-2-carboxamide] |
| 1.9 | 11.3 | 3.1 | CS(=O)(=O)Nc1ccc2cc(C(=O)Nc3cccc(-c4ccc(C#N)cc4C(F)(F)F)c3)[nH]c2c1 [Example 284, N-(4′-cyano-2′-(trifluoromethyl)-[1,1′-biphenyl]-3-yl)-6-(methylsulfonamido)-1H-indole-2-carboxamide] |
| 2.5 | 13.6 | 3.3 | CS(=O)(=O)Nc1ccc2cc(C(=O)Nc3cccc(-c4ccc([N+](=O)[O-])cc4C(F)(F)F)c3)[nH]c2c1 [Example 285, 6-(methylsulfonamido)-N-(4′-nitro-2′-(trifluoromethyl)-[1,1′-biphenyl]-3-yl)-1H-indole-2-carboxamide] |
| > 10 | 10.2 | > 10 | COC(=O)c1ccc(C(F)(F)F)c(-c2cccc(NC(=O)c3cc4ccc([N+](=O)[O-])cc4[nH]3)c2)c1 [Example 286, methyl 3′-(6-nitro-1H-indole-2-carboxamido)-6-(trifluoromethyl)-[1,1′-biphenyl]-3-carboxylate] |
| > 10 | 23.6 | > 10 | COC(=O)c1ccc(C(F)(F)F)c(-c2cccc(NC(=O)c3cc4ccc(NS(C)(=O)=O)cc4[nH]3)c2)c1 [Example 287, methyl 3′-(6-(methylsulfonamido)-1H-indole-2-carboxamido)-6-(trifluoromethyl)-[1,1′-biphenyl]-3-carboxylate] |
| > 10 | > 50 | > 10 | COC(=O)c1cc(-c2cccc(NC(=O)c3cc4ccc([N+](=O)[O-])cc4[nH]3)c2)c(C(F)(F)F)cc1OC [Example 288, methyl 4-methoxy-3′-(6-nitro-1H-indole-2-carboxamido)-6-(trifluoromethyl)-[1,1′-biphenyl]-3-carboxylate] |
